Converted amounts (≈) assume the structure as drawn. Residues, ends and D or L forms follow the SMILES beside them.
How the values were obtained:
[1] = test system: CD3 T-cells co-cultured with autologous LCs; test: T-cell proliferation induced by treated LCs, alamarBlue; type: cell-based, human
[2] = PSA peptide solubility testing (turbidity); settings: for Solubility, peptides tested individually: pH 4 or pH 5 with succinate (10 mM) or glutamate (10 mM)

## tetanus toxoid
[1]; over media, 7 days co-culture of T cells with autologous LCs
  T-cell proliferation: no significant increase over media
[1]; subjects 2 and 5
  Measurable proliferation, increased fluorescence: ≥ 5000

## CSCC[C@H](NC(=O)[C@H](CC(=O)O)NC(=O)[C@H](Cc1ccc(O)cc1)NC(=O)[C@H](CC(C)C)NC(=O)[C@@H]1CCCN1C(=O)[C@H](Cc1c[nH]cn1)NC(=O)[C@@H]1CCCN1C(=O)[C@H](Cc1ccccc1)NC(=O)[C@H](CO)NC(=O)[C@H](Cc1c[nH]cn1)NC(=O)[C@H](CO)NC(=O)[C@@H](NC(=O)[C@H](CCC(N)=O)NC(=O)[C@H](Cc1ccccc1)NC(=O)[C@@H](NC(=O)[C@H](CCC(N)=O)NC(=O)CNC(=O)[C@@H](NC(=O)[C@H](CC(=O)O)NC(=O)[C@H](CCC(=O)O)NC(=O)[C@@H]1CCCN1C(=O)[C@H](Cc1c[nH]cn1)NC(=O)[C@H](Cc1ccccc1)NC(C)=O)[C@@H](C)O)C(C)C)C(C)C)C(=O)N[C@@H](CO)C(=O)N[C@@H](CC(C)C)C(=O)N[C@@H](CC(C)C)C(=O)N[C@@H](CCCCN)C(=O)N[C@@H](CC(N)=O)C(=O)N[C@@H](CCCNC(=N)N)C(=O)N[C@@H](Cc1ccccc1)C(=O)N[C@@H](CC(C)C)C(=O)N[C@@H](CCCNC(=N)N)C(=O)N1CCC[C@H]1C(=O)NCC(=O)N[C@@H](CC(=O)O)C(=O)N[C@@H](CC(=O)O)C(=O)N[C@@H](CO)C(=O)N[C@@H](CO)C(=O)N[C@@H](Cc1c[nH]cn1)C(=O)N[C@@H](CC(=O)O)C(N)=O [PSA 81-120, FHPEDTGQVFQVSHSFPHPLYDMSLLKNRFLRPGDDSSHD] (Ac-FHPEDTGQVFQVSHSFPHPLYDMSLLKNRFLRPGDDSSHD-NH2; N-terminus and C-terminus assumed)
[2]
  Solubility, peptides tested individually: soluble in both buffers

## CC[C@H](C)[C@H](NC(=O)[C@H](Cc1c[nH]c2ccccc12)NC(=O)[C@H](CCCCN)NC(=O)[C@H](CCCNC(=N)N)NC(=O)[C@H](Cc1ccc(O)cc1)NC(=O)[C@H](Cc1c[nH]cn1)NC(=O)[C@@H](NC(=O)[C@@H](NC(=O)[C@H](CCCCN)NC(=O)[C@@H](NC(=O)[C@H](Cc1ccc(O)cc1)NC(=O)[C@H](CC(C)C)NC(=O)[C@H](CO)NC(C)=O)[C@@H](C)O)C(C)C)C(C)C)C(=O)N[C@@H](CCCCN)C(=O)N[C@@H](CC(=O)O)C(=O)N[C@H](C(=O)N[C@H](C(=O)N[C@H](C(=O)N[C@@H](C)C(=O)N[C@@H](CC(N)=O)C(=O)N1CCC[C@H]1C(N)=O)C(C)C)[C@@H](C)CC)[C@@H](C)O [PSA 241-261, SLYTKVVHYR KWIKDTIVAN P] (Ac-SLYTKVVHYRKWIKDTIVANP-NH2; N-terminus and C-terminus assumed)
[2]
  Solubility, peptides tested individually: soluble in both buffers

## CC[C@H](C)[C@H](NC(=O)[C@H](CS)NC(=O)[C@H](Cc1c[nH]cn1)NC(=O)[C@H](C)NC(=O)[C@H](C)NC(=O)[C@@H](NC(=O)[C@H](CC(C)C)NC(=O)[C@@H](NC(=O)[C@H](Cc1c[nH]c2ccccc12)NC(=O)[C@H](CCC(N)=O)NC(=O)[C@@H]1CCCN1C(=O)[C@H](Cc1c[nH]cn1)NC(=O)[C@@H](NC(=O)[C@H](CC(C)C)NC(=O)[C@@H](NC(=O)CNC(=O)CNC(=O)[C@H](CS)NC(=O)[C@@H](NC(=O)[C@H](C)NC(=O)[C@H](CCCNC(=N)N)NC(=O)CNC(=O)[C@H](CCCNC(=N)N)NC(=O)[C@H](CO)NC(=O)[C@H](C)NC(=O)[C@@H](NC(=O)[C@H](CC(C)C)NC(C)=O)C(C)C)C(C)C)C(C)C)C(C)C)C(C)C)[C@@H](C)O)C(=O)N[C@@H](CCCNC(=N)N)C(=O)N[C@@H](CC(N)=O)C(=O)N[C@@H](CCCCN)C(=O)N[C@@H](CO)C(=O)N[C@H](C(=O)N[C@H](C(=O)N[C@@H](CC(C)C)C(=O)N[C@@H](CC(C)C)C(=O)NCC(=O)N[C@@H](CCCNC(=N)N)C(=O)N[C@@H](Cc1c[nH]cn1)C(=O)N[C@@H](CO)C(=O)N[C@@H](CC(C)C)C(N)=O)[C@@H](C)CC)C(C)C [PSA 41-80, LVASRGRAVCGGVLVHPQWVLTAAHCIRNKSVILLGRHSL] (Ac-LVASRGRAVCGGVLVHPQWVLTAAHCIRNKSVILLGRHSL-NH2; N-terminus and C-terminus assumed)
[2]
  Solubility, peptides tested individually: soluble in both buffers

## CC[C@H](C)[C@H](NC(=O)[C@H](Cc1c[nH]c2ccccc12)NC(=O)[C@@H](NC(=O)[C@@H](NC(=O)[C@H](CO)NC(=O)[C@H](CC(C)C)NC(=O)[C@@H](NC(=O)[C@H](CC(C)C)NC(=O)[C@H](Cc1ccccc1)NC(=O)[C@@H](NC(=O)[C@@H](NC(=O)[C@@H]1CCCN1C(=O)[C@@H](NC(=O)[C@H](Cc1c[nH]c2ccccc12)NC(=O)[C@H](CCSC)NC(C)=O)C(C)C)C(C)C)C(C)C)[C@@H](C)O)C(C)C)[C@@H](C)O)C(=O)NCC(=O)N[C@@H](C)C(=O)N[C@@H](C)C(=O)N1CCC[C@H]1C(=O)N[C@@H](CC(C)C)C(=O)N[C@H](C(=O)N[C@@H](CC(C)C)C(=O)N[C@@H](CO)C(=O)N[C@@H](CCCNC(=N)N)C(=O)N[C@H](C(=O)N[C@H](C(=O)NCC(=O)NCC(=O)N[C@@H](Cc1c[nH]c2ccccc12)C(=O)N[C@@H](CCC(=O)O)C(=O)N[C@@H](CS)C(=O)N[C@@H](CCC(=O)O)C(=O)N[C@@H](CCCCN)C(=O)N[C@@H](Cc1c[nH]cn1)C(=O)N[C@@H](CO)C(=O)N[C@@H](CCC(N)=O)C(=O)N1CCC[C@H]1C(=O)N[C@@H](Cc1c[nH]c2ccccc12)C(=O)N[C@@H](CCC(N)=O)C(=O)N[C@H](C(N)=O)C(C)C)C(C)C)[C@@H](C)CC)[C@@H](C)CC [PSA 1-40, MWVPVVFLTLSVTWIGAAPLILSRIVGGWECEKHSQPWQV] (Ac-MWVPVVFLTLSVTWIGAAPLILSRIVGGWECEKHSQPWQV-NH2; N-terminus and C-terminus assumed)
[2]; after dilution from 20 mg/ml to 5 mg/ml, 10 mM succinate, pH5.0 with 5% glycine
  Solubility: remained insoluble
[2]; at 20 mg/ml in 10 mM succinate, pH5.0 with 5% glycine
  Solubility: insoluble
[2]; in the presence of other PSA peptides
  Solubility: solubility was enhanced
[2]
  Solubility, peptides tested individually: All except PSA 1-40 were soluble in both buffers
[2]; pH 5
  Solubility: 5500 µg/mL (≈ 1200 µM)

Reference: patent US20180028627A1, “TREATMENT VACCINE FOR PROSTATE CANCER” (Bioventures, LLC, priority 2015, published 2018)
